In PubChem BioAssay (NCI):
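Cells were grown in 96-well plates and exposed to each compound for 48 hours at five concentrations; endpoints were interpolated linearly between bracketing concentrations, or set to the highest concentration if not reached. TGI: total growth inhibition.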

How the values were obtained:
Experiment in all cases: DTP human tumour cell line panel, 48 h
SF-295 CNS = system: SF-295 CNS
RPMI-8226 leukemia = system: RPMI-8226 leukemia
NCI-H226 lung = system: NCI-H226 lung
HCT-116 colon = system: HCT-116 colon
SR leukemia = system: SR leukemia
KM12 colon = system: KM12 colon
OVCAR-3 ovarian = system: OVCAR-3 ovarian
UO-31 renal = system: UO-31 renal
MALME-3M melanoma = system: MALME-3M melanoma
SW-620 colon = system: SW-620 colon
NCI/ADR-RES ovarian = system: NCI/ADR-RES ovarian
SNB-19 CNS = system: SNB-19 CNS
HOP-62 NSCLC = system: HOP-62 NSCLC
PC-3 prostate = system: PC-3 prostate
LOX IMVI melanoma = system: LOX IMVI melanoma
SF-539 CNS = system: SF-539 CNS
A498 renal = system: A498 renal
UACC-257 melanoma = system: UACC-257 melanoma
A549 NSCLC = system: A549 NSCLC
SK-MEL-28 melanoma = system: SK-MEL-28 melanoma
SN12C renal = system: SN12C renal
UACC-62 melanoma = system: UACC-62 melanoma
U251 CNS = system: U251 CNS
RXF 393 renal = system: RXF 393 renal
NCI-H460 lung = system: NCI-H460 lung
DU-145 prostate = system: DU-145 prostate
SK-MEL-5 melanoma = system: SK-MEL-5 melanoma
HCT-15 colon = system: HCT-15 colon
CAKI-1 renal = system: CAKI-1 renal
SNB-75 CNS = system: SNB-75 CNS
MDA-MB-231 breast = system: MDA-MB-231 breast
COLO 205 colon = system: COLO 205 colon
ACHN renal = system: ACHN renal
OVCAR-8 ovarian = system: OVCAR-8 ovarian
EKVX NSCLC = system: EKVX NSCLC
NCI-H522 lung = system: NCI-H522 lung
T-47D breast = system: T-47D breast
CCRF-CEM leukemia = system: CCRF-CEM leukemia
NCI-H23 lung = system: NCI-H23 lung
SK-OV-3 ovarian = system: SK-OV-3 ovarian
786-0 renal = system: 786-0 renal
OVCAR-5 ovarian = system: OVCAR-5 ovarian
MDA-MB-435 = system: MDA-MB-435
HT29 colon = system: HT29 colon
OVCAR-4 ovarian = system: OVCAR-4 ovarian
TK-10 renal = system: TK-10 renal
SF-268 CNS = system: SF-268 CNS
K-562 leukemia = system: K-562 leukemia
MDA-N = system: MDA-N
HOP-92 NSCLC = system: HOP-92 NSCLC
M14 melanoma = system: M14 melanoma
MOLT-4 leukemia = system: MOLT-4 leukemia
BT-549 breast = system: BT-549 breast
MCF7 breast = system: MCF7 breast
HCC-2998 colon = system: HCC-2998 colon
IGROV1 ovarian = system: IGROV1 ovarian
SK-MEL-2 melanoma = system: SK-MEL-2 melanoma

Measured: TGI

CC(C)Sc1nncc(/C(N)=N/O)n1
not listed: SK-MEL-2 melanoma
> 100 µM: all other assays above

CCOC(=O)Nn1cnnc1C
not listed: SK-MEL-28 melanoma | DU-145 prostate | SNB-75 CNS | SF-268 CNS
> 100 µM: all other assays above

COc1ccc(/C=C2/SC(c3ccccc3)N(NC(=O)CCCCCCCCC(=O)NN3C(=O)/C(=C\c4ccc(OC)c(OC)c4)SC3c3ccccc3)C2=O)cc1OC (stereo unspecified)
62 µM: K-562 leukemia
66.3 µM: HOP-92 NSCLC
72.6 µM: RPMI-8226 leukemia
61.7 µM: IGROV1 ovarian
72.9 µM: SF-295 CNS
71.8 µM: ACHN renal
79.1 µM: SF-539 CNS
94.8 µM: EKVX NSCLC
60.5 µM: MOLT-4 leukemia
98.7 µM: UACC-62 melanoma
76.2 µM: MDA-N
91.3 µM: 786-0 renal
98.3 µM: SR leukemia
not listed: MALME-3M melanoma | LOX IMVI melanoma | SK-MEL-5 melanoma | NCI-H522 lung | CCRF-CEM leukemia
> 100 µM: all other assays above
